Measurements taken from PubChem BioAssay AID330 (DTP/NCI, 2004).
Several values for one entry are separate records, joined by “and”; a condition that tells them apart may be missing. Identical values can stand only once. Toxic doses and inconclusive results are not listed. How the source made its calls: active means survival T/C of 150% or more; inactive means T/C below 125% in these data.

Test system: P388 leukemia ip, CD2F1 mice, survival T/C
Assay: NCI In Vivo Anticancer Drug Screen. Data for tumor model P388 Leukemia (intraperitoneal) in CD2F1 (CDF1) mice
Details: endpoint: median survival time, higher = longer survival
Method in brief: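 Mice carrying the transplanted tumor received test compound or vehicle. Survival was recorded in each group, and the value is the treated-group measurement divided by that of the vehicle-treated control group.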

[1] = dose: 12.0 mg/kg/injection, schedule: Q01DX009 (ip), vehicle: Klucel (hydroxypropylcellulose) (HPC)
[2] = dose: 50.0 mg/kg/injection, schedule: Q01DX005 (ip), vehicle: Klucel (hydroxypropylcellulose) (HPC)
[3] = dose: 25.0 mg/kg/injection, schedule: Q01DX009 (ip), vehicle: saline
[4] = dose: 50.0 mg/kg/injection, schedule: Q01DX009 (ip), vehicle: saline
[5] = dose: 100.0 mg/kg/injection, schedule: Q01DX009 (ip), vehicle: saline
[6] = dose: 200.0 mg/kg/injection, schedule: Q01DX009 (ip), vehicle: saline
[7] = dose: 400.0 mg/kg/injection, schedule: Q01DX009 (ip), vehicle: saline
[8] = dose: 50.0 mg/kg/injection, schedule: Q01DX009 (ip), vehicle: saline with Tween-80
[9] = dose: 100.0 mg/kg/injection, schedule: Q01DX009 (ip), vehicle: saline with Tween-80
[10] = dose: 200.0 mg/kg/injection, schedule: Q01DX009 (ip), vehicle: saline with Tween-80
[11] = dose: 100.0 mg/kg/injection, schedule: Q01DX005 (ip), vehicle: Klucel (hydroxypropylcellulose) (HPC)
[12] = dose: 200.0 mg/kg/injection, schedule: Q01DX005 (ip), vehicle: Klucel (hydroxypropylcellulose) (HPC)
[13] = dose: 25.0 mg/kg/injection, schedule: Q01DX005 (ip), vehicle: saline with Tween-80
[14] = dose: 12.5 mg/kg/injection, schedule: Q04DX003 (ip), vehicle: Klucel (hydroxypropylcellulose) (HPC)
[15] = dose: 25.0 mg/kg/injection, schedule: Q04DX003 (ip), vehicle: Klucel (hydroxypropylcellulose) (HPC)
[16] = dose: 50.0 mg/kg/injection, schedule: Q01DX005 (ip), vehicle: saline with Tween-80
[17] = dose: 100.0 mg/kg/injection, schedule: Q01DX005 (ip), vehicle: saline with Tween-80

Measured: T/C

Cc1cc(O)c2c(c1O)C(=O)c1cccc(O)c1C2=O
inactive: dose: 0.75 mg/kg/injection, schedule: Q01DX009 (ip), vehicle: Klucel (hydroxypropylcellulose) (HPC) 108 % of control | dose: 1.5 mg/kg/injection, schedule: Q01DX009 (ip), vehicle: Klucel (hydroxypropylcellulose) (HPC) 115 % of control | dose: 3.0 mg/kg/injection, schedule: Q01DX005 (ip), vehicle: Klucel (hydroxypropylcellulose) (HPC) 99 % of control | dose: 3.0 mg/kg/injection, schedule: Q01DX009 (ip), vehicle: Klucel (hydroxypropylcellulose) (HPC) 90 % of control | dose: 6.0 mg/kg/injection, schedule: Q01DX005 (ip), vehicle: Klucel (hydroxypropylcellulose) (HPC) 106 % of control | dose: 6.0 mg/kg/injection, schedule: Q01DX009 (ip), vehicle: Klucel (hydroxypropylcellulose) (HPC) 114 % of control | dose: 12.0 mg/kg/injection, schedule: Q01DX005 (ip), vehicle: Klucel (hydroxypropylcellulose) (HPC) 101 % of control | [1] 98 % of control | dose: 12.5 mg/kg/injection, schedule: Q01DX005 (ip), vehicle: Klucel (hydroxypropylcellulose) (HPC) 101 % of control | dose: 24.0 mg/kg/injection, schedule: Q01DX005 (ip), vehicle: Klucel (hydroxypropylcellulose) (HPC) 95 % of control | dose: 25.0 mg/kg/injection, schedule: Q01DX005 (ip), vehicle: Klucel (hydroxypropylcellulose) (HPC) 97 % of control | [2] 90 % of control | dose: 100.0 mg/kg/injection, schedule: Q01DX001 (ip), vehicle: saline 109 % of control | dose: 200.0 mg/kg/injection, schedule: Q01DX001 (ip), vehicle: saline 108 % of control | dose: 400.0 mg/kg/injection, schedule: Q01DX001 (ip), vehicle: saline 100 % of control

CC(=O)CC(=O)CCC(=O)O
inactive: [3] 100 % of control | [4] 105 % of control | [5] 110 % of control | [6] 117 % of control | [7] 94 % of control

CCOCC1COc2c(cc3[nH]cc(C(=O)OCC)c(=O)c3c2Cl)O1 (stereo not given)
inactive: [8] 111 % of control | [9] 110 % of control | [10] 101 % of control

CCOCC[Si]12OCCN(CCO1)CCO2
inactive: [2] 97 % of control | [11] 101 % of control | [12] 90 % of control

CS/C(=C/c1ccc2ccccc2[n+]1C)N1CCOCC1
inactive: dose: 6.25 mg/kg/injection, schedule: Q01DX005 (ip), vehicle: saline with Tween-80 105 % of control and 107 % of control and 108 % of control | dose: 12.5 mg/kg/injection, schedule: Q01DX005 (ip), vehicle: saline with Tween-80 103 % of control and 105 % of control and 119 % of control | [13] 110 % of control (2×) and 121 % of control

C/C=C(\C)C(=O)N/N=C/c1cccnc1
inactive: [2] 103 % of control | [11] 103 % of control | [12] 103 % of control

CN(C)C(=O)On1cc(Cl)cc1C#N
inactive: dose: 6.25 mg/kg/injection, schedule: Q04DX003 (ip), vehicle: Klucel (hydroxypropylcellulose) (HPC) 102 % of control | [14] 98 % of control | [15] 100 % of control | dose: 75.0 mg/kg/injection, schedule: Q04DX003 (ip), vehicle: Klucel (hydroxypropylcellulose) (HPC) 98 % of control

CN(C)c1ccc(C=Nc2ccc3c4c(cccc24)-c2ccccc2-3)cc1
inactive: [8] 93 % of control | [9] 86 % of control | [10] 89 % of control

C=C1CC2(CCS(=O)(=O)c3ccccc32)OC1=O (stereo not given)
inactive: dose: 12.5 mg/kg/injection, schedule: Q04DX002 (ip), vehicle: saline with Tween-80 105 % of control | dose: 25.0 mg/kg/injection, schedule: Q04DX002 (ip), vehicle: saline with Tween-80 109 % of control | dose: 50.0 mg/kg/injection, schedule: Q04DX002 (ip), vehicle: saline with Tween-80 116 % of control

CC(C)CC(NC(=O)CF)C(=O)O (stereo not given)
inactive: dose: 1.25 mg/kg/injection, schedule: Q01DX009 (ip), vehicle: saline with Tween-80 96 % of control | dose: 2.5 mg/kg/injection, schedule: Q01DX009 (ip), vehicle: saline with Tween-80 109 % of control | dose: 5.0 mg/kg/injection, schedule: Q01DX009 (ip), vehicle: saline with Tween-80 124 % of control

Cc1c(C)c(=O)c2cc3c(=O)ccc(=O)c3cc2c1=O
inactive: [14] 101 % of control | [15] 96 % of control | dose: 50.0 mg/kg/injection, schedule: Q04DX003 (ip), vehicle: Klucel (hydroxypropylcellulose) (HPC) 103 % of control

COc1ccc(-c2c3c(cc4cc5c(cc24)OCO5)C(=O)OC3)cc1OC
inactive: [1] 110 % of control | dose: 24.0 mg/kg/injection, schedule: Q01DX009 (ip), vehicle: Klucel (hydroxypropylcellulose) (HPC) 91 % of control | dose: 48.0 mg/kg/injection, schedule: Q01DX009 (ip), vehicle: Klucel (hydroxypropylcellulose) (HPC) 86 % of control | dose: 96.0 mg/kg/injection, schedule: Q01DX009 (ip), vehicle: Klucel (hydroxypropylcellulose) (HPC) 88 % of control

CCOC(=O)CC1(C)OCCO1
inactive: [4] 98 % of control | [5] 99 % of control | [6] 99 % of control | [7] 101 % of control

CC(=O)N1c2ccccc2C23CCN(C)CC4C(C)OCC(C4CC2=O)C13 (stereo not given)
inactive: dose: 2.0 mg/kg/injection, schedule: Q01DX009 (ip), vehicle: Klucel (hydroxypropylcellulose) (HPC) 100 % of control | dose: 4.0 mg/kg/injection, schedule: Q01DX009 (ip), vehicle: Klucel (hydroxypropylcellulose) (HPC) 95 % of control | dose: 8.0 mg/kg/injection, schedule: Q01DX009 (ip), vehicle: Klucel (hydroxypropylcellulose) (HPC) 98 % of control | dose: 16.0 mg/kg/injection, schedule: Q01DX009 (ip), vehicle: Klucel (hydroxypropylcellulose) (HPC) 100 % of control | dose: 32.0 mg/kg/injection, schedule: Q01DX009 (ip), vehicle: Klucel (hydroxypropylcellulose) (HPC) 100 % of control

CNC(=O)OCc1c(COC(=O)NC)c2n(c1-c1ccc(Cl)c(Cl)c1)CCS2(=O)=O
inactive: [13] 108 % of control | [16] 92 % of control | [17] 88 % of control | dose: 200.0 mg/kg/injection, schedule: Q01DX005 (ip), vehicle: saline with Tween-80 92 % of control

O=C1/C(=C/c2ccccc2)CSC/C1=C\c1ccccc1
inactive: [2] 91 % of control | [11] 86 % of control

C(=P(c1ccccc1)(c1ccccc1)c1ccccc1)[P+](c1ccccc1)(c1ccccc1)c1ccccc1
inactive: dose: 3.12 mg/kg/injection, schedule: Q01DX009 (ip), vehicle: saline 111 % of control | dose: 3.12 mg/kg/injection, schedule: Q01DX009 (ip), vehicle: suspension in saline 111 % of control | dose: 6.25 mg/kg/injection, schedule: Q01DX009 (ip), vehicle: saline 104 % of control | dose: 6.25 mg/kg/injection, schedule: Q01DX009 (ip), vehicle: suspension in saline 112 % of control | dose: 12.5 mg/kg/injection, schedule: Q01DX009 (ip), vehicle: suspension in saline 119 % of control

CCCCCCCCCC[N+](C)(C)CCCO
inactive: dose: 12.5 mg/kg/injection, schedule: Q01DX009 (ip), vehicle: saline 96 % of control | [3] 112 % of control | [4] 118 % of control

CN(C)c1ccnc2c1cnn2C1OC(CO)C(O)C1O (stereo not given)
inactive: [13] 97 % of control | [16] 108 % of control | [17] 106 % of control

CC(C)(NC(=O)OC12CC3CC(CC(C3)C1)C2)C(=O)O
inactive: dose: 60.0 mg/kg/injection, schedule: Q01DX005 (ip), vehicle: saline with Tween-80 109 % of control | dose: 120.0 mg/kg/injection, schedule: Q01DX005 (ip), vehicle: saline with Tween-80 104 % of control | dose: 240.0 mg/kg/injection, schedule: Q01DX005 (ip), vehicle: saline with Tween-80 98 % of control

CCOC(=O)/C=C/C(=O)NNS(=O)(=O)CCC(N)C(=O)O (stereo not given)
inactive: dose: 12.5 mg/kg/injection, schedule: Q01DX009 (ip), vehicle: water 101 % of control | dose: 25.0 mg/kg/injection, schedule: Q01DX009 (ip), vehicle: water 95 % of control | dose: 50.0 mg/kg/injection, schedule: Q01DX009 (ip), vehicle: water 100 % of control | dose: 100.0 mg/kg/injection, schedule: Q01DX009 (ip), vehicle: water 116 % of control
